Experiment [1] has as its system fatty acid-CoA ligase QKS25406. Description: substrate chain length preference of fatty acid-CoA ligase QKS25406. It is filed as biochemical, Halomonas titanicae. As to conditions: for suitability of the enzyme for the fatty acid (optimal / possible / not possible): result in words; for percent activity: substrate chain length preference distribution, percent activity vs. carbon length, enzyme QKS25406. The source says: (§1) • Sources: Enzyme sequences were identified by searching the NCBI Protein or Identical Protein Group databases. For this example, it was decided to focus primarily on the thermohalophile Thermobifida halotolerans. Sequences and accession numbers for the enzymes used in this work are listed in Appendix I. All general laboratory chemicals and long chain fatty acids were purchased from Millipore-Sigma Chemical Company (St. Louis, MO). Cloning materials and protein purification supplies were from New England Biolabs (Beverly, MA). • Enzyme cloning: The amino acid sequence for each enzyme was searched for potential signal sequences. If one was present it was removed from the sequence. A histine tag and a TEV protease cleavage sequence were added to the N-ter of each enzyme. This sequence was MHHHHHHENLYFQS to assist in purification (via an NTA-Ni column) and subsequent removal of the hexahistidine tag. Each recombinant enzyme began with an N-ter serine residue as TEV protease cleaves after the glutamine (Q). Each amino acid sequence was back translated to an E. coli codon optimized nucleic acid sequence and was synthesized using standard laboratory gene synthesis techniques. The insert was digested with Nde I and cloned into the similarly digested expression vector pET11d. Final DNA sequences were verified by DNA sequencing. Expression plasmids were used to transform E. coli Origami2 (DE3) for expression. • Protein expression and purification: A single colony was used to inoculate 5.0 mL of LBamp media ([…] ampicillin concentration). Bacteria were grown for 12 hours at 37° C. and this culture was used to inoculate 500 mL of LBamp media. This culture was grown at 37° C. until the optical density (600 nm) reached 0.4 (typically in 3-5 hours). Protein expression was induced by the addition of IPTG to a final concentration of 1 mM. Cells were grown for 12 hours at 37° C. Cells were harvested by centrifugation at 5,000×g for 20 minutes, and frozen at −80° C. until use (minimal time frozen was 24 hours). Cells were thawed on ice and were resuspended in Buffer A (0.5 M NaCl, 20 mM Tris-HCl, 5 mM imidazole, pH 7.9) (typically 1 mL per gram of cells). Cells were disrupted via two passes through a French Press followed by centrifugation at 30,000×g for 30 minutes. The crude extract was mixed with an equal volume of charged His-Bind resin slurry and the mixture was poured into 5 cm×4.9 cc column. The column was washed with 10 column volumes of wash buffer (0.5 M NaCl, 20 mM Tris-HCl, 60 mM imidazole, pH 7.9) at a flow rate of 0.2 mL/min. Enzyme was eluted from the column with the addition of 3 column volumes of 0.5 M NaCl, 20 mM Tris-HCl, 1.0 M imidazole, pH 7.9. Fractions were collected (1.0 mL). Fractions containing enzyme were pooled after analysis by SDS PAGE. The pooled fractions were applied to a 70 cmp×4.9 cc Sephadex G-75 column (10 mM Tris-HCl, PH 7.5, 1 mM EDTA). Fractions containing homogeneous protein were pooled (after inspection by SDS PAGE) and concentrated to 5 mg/ml via Centricon filters. Enzyme was stored frozen at −20° C. until use. The TRX-histidine tag region was removed from the enzymes using TEV protease. Protein was diluted to 1.0 mg/ml into 10 mM Tris-HCl, pH 7.5, 25 mM NaCl. 100 U of TEV protease was added per mg of enzyme (approximate ratio of 1:100 (w/w). The reaction was allowed to proceed for 16 h at 4° C. The mixture was passed over a charged nickel column. One column volume of eluent was collected representing purified tag-free enzyme. • Enzyme assays: The formation of long-chain fatty acid-CoA was monitored by measuring the amount of pyrophosphate released from the reaction using the MAK 168 pyrophosphate assay kit from Millipore-Sigma Chemical Co (St. Louis, MO). The formation of PHA was monitored by the increase in optical density (650 nm) as a function of time in a Molecular Devices SpectraMax 5 spectrometer. The assay measures the increase in light scattering due to precipitating PHA formed during the reaction. […]

Experiment [2] relates to fatty acid-CoA ligase QKS24113. Description: substrate chain length preference of fatty acid-CoA ligase QKS24113. To be noted: for suitability of the enzyme for the fatty acid (optimal / possible / not possible): result in words; for percent activity: substrate chain length preference distribution, percent activity vs. carbon length, enzyme QKS24113. It is filed as biochemical, Halomonas titanicae.
Text: as §1

Experiment [3] deals with fatty acid-CoA ligase QKS24074. Description: substrate chain length preference of fatty acid-CoA ligase QKS24074. It is filed as biochemical, Halomonas titanicae. To be noted: for suitability of the enzyme for the fatty acid (optimal / possible / not possible): result in words; for percent activity: substrate chain length preference distribution, percent activity vs. carbon length, enzyme QKS24074.
Text: as §1

The subject of experiment [4] is fatty acid-CoA ligase QKS26753. Description: substrate chain length preference of fatty acid-CoA ligase QKS26753. To be noted: for suitability of the enzyme for the fatty acid (optimal / possible / not possible): result in words; for percent activity: substrate chain length preference distribution, percent activity vs. carbon length, enzyme QKS26753. It is filed as biochemical, Halomonas titanicae.
Text: as §1

Experiment [5] relates to fatty acid-CoA ligase QKS23364. Description: substrate chain length preference of fatty acid-CoA ligase QKS23364. As to conditions: for suitability of the enzyme for the fatty acid (optimal / possible / not possible): result in words; for percent activity: substrate chain length preference distribution, percent activity vs. carbon length, enzyme QKS23364. It is filed as biochemical, Halomonas titanicae.
Text: as §1

Experiment [6] relates to long-chain fatty acid CoA ligase. Description: long-chain fatty acid CoA ligase reaction time course, Example 1 (fatty acid loss, pyrophosphate formation). It is filed as biochemical, Thermobifida halotolerans. As to conditions: Example 1, FIG. 6/7; single fatty acid substrate. The source says:
(§2) • Sources: Enzyme sequences were identified by searching the NCBI Protein or Identical Protein Group databases. For this example, it was decided to focus primarily on the thermohalophile Thermobifida halotolerans. Sequences and accession numbers for the enzymes used in this work are listed in Appendix I. All general laboratory chemicals and long chain fatty acids were purchased from Millipore-Sigma Chemical Company (St. Louis, MO). Cloning materials and protein purification supplies were from New England Biolabs (Beverly, MA). • Enzyme cloning: The amino acid sequence for each enzyme was searched for potential signal sequences. If one was present it was removed from the sequence. […] 100 U of TEV protease was added per mg of enzyme (approximate ratio of 1:100 (w/w). The reaction was allowed to proceed for 16 h at 4° C. The mixture was passed over a charged nickel column. One column volume of eluent was collected representing purified tag-free enzyme. • Enzyme assays: The formation of long-chain fatty acid-CoA was monitored by measuring the amount of pyrophosphate released from the reaction using the MAK 168 pyrophosphate assay kit from Millipore-Sigma Chemical Co (St. Louis, MO). The formation of PHA was monitored by the increase in optical density (650 nm) as a function of time in a Molecular Devices SpectraMax 5 spectrometer. […]

The test system of another experiment is fatty acid-CoA ligase. Description: long-chain fatty acid CoA ligase reaction time course, Example 5. To be noted: Example 5, FIG. 20/21; 1.0 M NaCl, pH 7.5. It is filed as biochemical, Halomonas titanicae.
Text: as §2, with “sequence. A histine tag and a TEV protease cleavage sequence were added to the N-ter of each enzyme. This sequence was MHHHHHHENLYFQS to assist in purification (via an NTA-Ni column) and subsequent removal of the hexahistidine tag. Each recombinant enzyme began with an N-ter serine residue as TEV protease cleaves after the glutamine (Q). Each amino acid sequence was back translated to an E. coli codon optimized nucleic acid sequence and was synthesized using standard laboratory gene synthesis techniques. The insert was digested with Nde I and cloned into the similarly digested expression vector pET11d. Final DNA sequences were verified by DNA sequencing.” for “sequence.”

Experiment [7] relates to overall 5-step reaction from long-chain fatty acid CoA to PHA. Description: formation of precipitating PHA, optical density 650 nm, Example 1. It is filed as biochemical, Thermobifida halotolerans. As to conditions: Example 1, FIG. 8; fatty acid as starting material.
Text: as §1, with “Cells were thawed on ice and were resuspended in Buffer A (0.5 M NaCl, 20 mM Tris-HCl, 5 mM imidazole, pH 7.9) (typically 1 mL per gram of cells). Cells were disrupted via two passes through a French Press followed by centrifugation at 30,000×g for 30 minutes. The crude extract was mixed with an equal volume of charged His-Bind resin slurry and the mixture was poured into 5 cm×4.9 cc column. The column was washed with 10 column volumes of wash buffer (0.5 M NaCl, 20 mM Tris-HCl, 60 mM imidazole, pH 7.9) at a flow rate of 0.2 mL/min. Enzyme was eluted from the column with the addition of 3 column volumes of 0.5 M NaCl, 20 mM Tris-HCl, 1.0 M imidazole, pH 7.9. Fractions were collected (1.0 mL). Fractions containing enzyme were pooled after analysis by SDS PAGE. The pooled fractions were applied to a 70 cmp×4.9 cc Sephadex G-75 column (10 mM Tris-HCl, PH 7.5, 1 mM EDTA). Fractions containing homogeneous protein were pooled (after inspection by SDS PAGE) and concentrated to 5 mg/ml via Centricon filters. Enzyme was stored frozen at −20° C. until use. The TRX-histidine tag region was removed from the enzymes using TEV protease. Protein was diluted to 1.0 mg/ml into 10 mM Tris-HCl, pH 7.5, 25 mM NaCl.” left out, “spectrometer.” for “spectrometer. The assay measures the increase in light scattering due to precipitating PHA formed during the reaction.”

The subject of experiment [8] is five-step reaction from long-chain fatty acid CoA to PHA. Description: formation of precipitating PHA, optical density 650 nm, Example 5. It is filed as biochemical, Halomonas titanicae. As to conditions: Example 5, FIG. 22; fatty acid as starting material.
Text: as §2, with “sequence. A histine tag and a TEV protease cleavage sequence were added to the N-ter of each enzyme. This sequence was MHHHHHHENLYFQS to assist in purification (via an NTA-Ni column) and subsequent removal of the hexahistidine tag. Each recombinant enzyme began with an N-ter serine residue as TEV protease cleaves after the glutamine (Q). Each amino acid sequence was back translated to an E. coli codon optimized nucleic acid sequence and was synthesized using standard laboratory gene synthesis techniques. The insert was digested with Nde I and cloned into the similarly digested expression vector pET11d. Final DNA sequences were verified by DNA sequencing.” for “sequence.”

The test system of experiment [9] is WP_068689753 enzyme (long chain fatty acid-CoA synthetase). Description: formation of the CoA moiety followed by pyrophosphate formation, Example 3. To be noted: Example 3, FIG. 13; sole substrate. It is filed as biochemical, Thermobifida halotolerans.
Text: as §2

The subject of experiment [10] is WP_068692787 enzyme (long chain fatty acid-CoA synthetase). Description: formation of the CoA moiety followed by pyrophosphate formation, Example 4. It is filed as biochemical, Thermobifida halotolerans. As to conditions: Example 4, FIG. 16; result in words.
Text: as §2

For `CCCCCCCCCCCCCC(=O)O` [C12, myristic acid], the “suitability of the enzyme for the fatty acid (optimal / possible / not possible)” value in experiment [1] was “much lower activity”; in experiment [2], “much lower activity”; in experiment [3], “much lower activity”; in experiment [4] it was “optimal enzymes”; in experiment [5], “optimal enzymes”. For the same compound, the percent activity in experiment [1] came out at 11.6%; in experiment [2], 5.2%; in experiment [3], 21.0%; in [4] it was 100%; in experiment [5] it was 100%. In addition, the “time to completion of the long-chain fatty acid CoA ligase reaction” value (“time to completion” below) (in experiment [6]; in the experiment with fatty acid-CoA ligase) was “complete within two hours” each time. Moreover, the “duration of linear formation of precipitating PHA after the lag” value (from here on “duration”) in experiment [7] came out at 150 min; in experiment [8], 100 min. In [7], the “lag before measurable increase in optical density (650 nm)” value was “approximately 50 minutes”.

For the compound `CCCCCCCCCCCCCCCCCCCCCCCCCC(=O)O` [hexacosanoic acid], in experiment [9], the “completion of formation of the CoA moiety” value was 240 min and the “lag period of formation of the CoA moiety” value worked out at 50 min.

With `CCCCCCCCCCCCCCCC(=O)O` [C14], the percent activity in experiment [1] is 30.4%; in experiment [2] it was 21.1%; in [3], 0.0%; in experiment [4], 100%; in experiment [5], 100%.

With `CCCCCCCCCC(=O)O` [C8], the percent activity in [1] is recorded as 0.0%; in experiment [2], 0.0%; in [3], 100%; in [4], 0.0%; in experiment [5] it was 70.7%.

As for `CCCCCCCCCCCCCCCCCCCCCC(=O)O` [C20, behenic acid], the “suitability of the enzyme for the fatty acid (optimal / possible / not possible)” value is recorded as “optimal enzymes” in experiment [1]; “optimal enzymes” in experiment [2]; “not possible enzymes” in experiment [3]; “not possible enzymes” in experiment [4]; “much lower activity” in experiment [5]. For the same compound, the percent activity in experiment [1] turned out to be 100%; in experiment [2] it was 100%; in experiment [3], 0.0%; in [4] it was 0.0%; in [5], 46.5%. The “time to completion” value in the experiment with fatty acid-CoA ligase is “complete within two hours”. In addition, in experiment [8], the “duration” value worked out at 100 min.

`CCCCCCCC(=O)O` [C6, octanoic acid]: the “suitability of the enzyme for the fatty acid (optimal / possible / not possible)” value in experiment [1] was “not possible enzymes”; in experiment [2] it was “not possible enzymes”; in [3] it was “optimal enzyme”; in experiment [4] it was “not possible enzymes”; in experiment [5], “much lower activity”. The percent activity is listed as 0.0% in [1]; 0.0% in experiment [2]; 100% in [3]; 0.0% in experiment [4]; 25.0% in experiment [5]. The “time to completion” value in the experiment with fatty acid-CoA ligase is “complete within two hours”. Further, the “duration” value in [8] was determined as 100 min.

On to `CCCCCCC(=O)O` [Heptanoic acid], for which the “conversion into the CoA moiety” value in [10] is “readily converted”.

As for `CCCCCCCCCCCCCCCCCCCC(=O)O` [C18, arachidic acid], the percent activity worked out at 100% in experiment [1]; 100% in experiment [2]; 0.0% in [3]; 5.6% in [4]; 100% in experiment [5]. Also, the “time to completion” value in [6] was “complete within two hours”. In experiment [7], the “duration” value was 150 min. The “lag before measurable increase in optical density (650 nm)” value in [7] is recorded as “approximately 50 minutes”.

The record behind these values is patent US20260098283A1, “In Vitro Bioproduction of Specific Chain Legnth Poly(hydroxyalkanoate) Monomers” (Kimberly-Clark Worldwide, Inc., priority 2022, published 2026).
